The results in this text go back to ChEMBL document CHEMBL1130619, “Quaternary substituted PDE4 inhibitors I: the synthesis and in vitro evaluation of a novel series of oxindoles” (Bioorg Med Chem Lett, 1998).

The structures appear in SMILES notation.

Assay [1] deals with T1, Phosphodiesterase 4 (Homo sapiens, UniProt P27815+Q08499+Q07343+Q08493). Briefly: Displacement of [3H]rolipram binding to guinea pig brain membrane. To be noted: target entry is the homologue from another species. It is filed as tissue-based, Cavia porcellus.
The target of assay [2] is T1, Phosphodiesterase 4. Briefly: Inhibition of guinea pig macrophage Phosphodiesterase 4. The format is protein assay, Cavia porcellus. The conditions noted are these: target entry is the homologue from another species.

As a reminder, the Ki is a measure of affinity in units of concentration, obtained from inhibition or displacement. High values mean weaker binding, low ones tighter binding. A word on the IC50: it is the concentration needed to halve the response being measured. `COc1ccc(C2(Cc3ccncc3)C(=O)N(Cc3ccccc3)c3ccccc32)cc1OC1CCCC1` (centres undefined) returned a Ki on Phosphodiesterase 4 [1] greater than 3700 nM. The molecule further had an IC50 at Phosphodiesterase 4 [2] of 2000 nM.

At Phosphodiesterase 4 [1], `COc1ccc(C2(Cc3ccncc3)C(=O)Nc3ccccc32)cc1OC1CCCC1` (centres undefined) registered a Ki of 200 nM. The same molecule came in with an IC50 on Phosphodiesterase 4 [2] of 600 nM.

In turn, `COc1ccc(C2(Cc3ccncc3)C(=O)N(Cc3ccncc3)c3ccccc32)cc1OC1CCCC1` (centres undefined) registered a Ki at Phosphodiesterase 4 [1] greater than 3700 nM. Further, on Phosphodiesterase 4 [2], the IC50 amounted to 1000 nM.

For `COc1ccc(C2(Cc3ccncc3)C(=O)N(S(=O)(=O)c3ccc(C)cc3)c3ccccc32)cc1OC1CCCC1` (centres undefined), at Phosphodiesterase 4 [1], the Ki is greater than 3700 nM. Also, the IC50 at Phosphodiesterase 4 [2] amounted to 2400 nM.

In turn, `COc1ccc(C2(Cc3cccnc3)C(=O)Nc3ccccc32)cc1OC1CCCC1` (centres undefined) gave a Ki at Phosphodiesterase 4 [1] of 2600 nM. In addition, on Phosphodiesterase 4 [2], the 50% inhibitory concentration (IC50) is 400 nM.

At Phosphodiesterase 4 [1], `COc1ccc(C2(Cc3ccncc3)C(=O)N(C(=O)OC(C)(C)C)c3ccccc32)cc1OC1CCCC1` (centres undefined) had a Ki of 2800 nM. For the same molecule, the IC50 against Phosphodiesterase 4 [2] is 700 nM.

Molecule `COc1ccc(C2(Cc3cc[n+]([O-])cc3)C(=O)Nc3ccccc32)cc1OC1CCCC1` (centres undefined) had a Ki on Phosphodiesterase 4 [1] greater than 3700 nM. This molecule displayed an IC50 against Phosphodiesterase 4 [2] of 1200 nM.

The molecule `COc1ccc(C2(Cc3ccccn3)C(=O)Nc3ccccc32)cc1OC1CCCC1` (centres undefined) registered a Ki on Phosphodiesterase 4 [1] greater than 3700 nM. The concentration for half-maximal inhibition (IC50) at Phosphodiesterase 4 [2] came to 700 nM.

`COc1ccc(C2C(=O)Nc3ccccc32)cc1OC1CCCC1` (centres undefined) returned an inhibition constant Ki at Phosphodiesterase 4 [1] greater than 3700 nM. In addition, the half-maximal inhibitory concentration (IC50) against Phosphodiesterase 4 [2] was 6000 nM.

`COc1ccc(C2(Cc3ccncc3)C(=O)N(C(=O)N(C)C)c3ccccc32)cc1OC1CCCC1` (centres undefined) displayed a Ki on Phosphodiesterase 4 [1] of 2400 nM. The same molecule came in with an IC50 on Phosphodiesterase 4 [2] of 1700 nM.

`COc1ccc(C2(Cc3ccccc3)C(=O)Nc3ccccc32)cc1OC1CCCC1` (centres undefined) gave a Ki at Phosphodiesterase 4 [1] greater than 3700 nM. At Phosphodiesterase 4 [2], this molecule displayed an IC50 of 1000 nM.

Molecule `COc1ccc([C@H](Cc2ccncc2)c2ccccc2)cc1OC1CCCC1` [CDP840] displayed a Ki on Phosphodiesterase 4 [1] of 60 nM. The same molecule yielded an IC50 at Phosphodiesterase 4 [2] of 4.5 nM.
